# In patent US10526309B2, “Pan-TAM inhibitors and Mer/Axl dual inhibitors” (The University of North Carolina at Chapel Hill, priority 2015, dated 2020):
# Read-outs that look alike come from different tables or passages of the source.
# Tests used:
# Assay type in all cases: biochemical
# Mer = target: T1, Mer (Homo sapiens, UniProt Q12866); experiment: Mer kinase inhibition IC50; details: read-out: Mer IC50
# T1 sequence (Q12866 21-999): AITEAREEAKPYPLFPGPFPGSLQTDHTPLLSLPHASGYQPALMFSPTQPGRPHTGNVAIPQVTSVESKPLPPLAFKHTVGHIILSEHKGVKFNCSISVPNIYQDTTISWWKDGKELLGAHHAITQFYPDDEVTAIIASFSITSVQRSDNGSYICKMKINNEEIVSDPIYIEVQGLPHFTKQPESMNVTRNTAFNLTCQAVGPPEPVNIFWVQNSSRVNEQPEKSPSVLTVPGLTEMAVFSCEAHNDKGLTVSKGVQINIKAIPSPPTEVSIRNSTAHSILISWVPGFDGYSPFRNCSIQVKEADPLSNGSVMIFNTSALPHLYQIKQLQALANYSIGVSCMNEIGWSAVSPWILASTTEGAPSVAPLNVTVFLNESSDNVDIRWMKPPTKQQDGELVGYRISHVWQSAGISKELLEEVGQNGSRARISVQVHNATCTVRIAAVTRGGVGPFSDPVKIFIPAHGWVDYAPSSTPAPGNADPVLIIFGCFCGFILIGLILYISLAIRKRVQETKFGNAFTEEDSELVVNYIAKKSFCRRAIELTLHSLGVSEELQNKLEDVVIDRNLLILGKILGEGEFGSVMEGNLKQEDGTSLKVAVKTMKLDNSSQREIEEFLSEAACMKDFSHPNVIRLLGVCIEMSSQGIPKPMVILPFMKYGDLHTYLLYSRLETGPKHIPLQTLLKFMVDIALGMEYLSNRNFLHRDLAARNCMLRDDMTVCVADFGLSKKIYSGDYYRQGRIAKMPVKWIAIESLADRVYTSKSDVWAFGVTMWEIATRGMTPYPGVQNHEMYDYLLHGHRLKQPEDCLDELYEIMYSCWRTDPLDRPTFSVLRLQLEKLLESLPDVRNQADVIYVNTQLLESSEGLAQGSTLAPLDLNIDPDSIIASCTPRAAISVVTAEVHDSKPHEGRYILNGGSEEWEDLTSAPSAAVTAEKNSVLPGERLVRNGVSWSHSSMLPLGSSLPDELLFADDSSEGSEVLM
# Axl = target: T2, Axl (Homo sapiens, UniProt P30530); experiment: Axl kinase inhibition IC50
# T2 sequence (P30530 26-894): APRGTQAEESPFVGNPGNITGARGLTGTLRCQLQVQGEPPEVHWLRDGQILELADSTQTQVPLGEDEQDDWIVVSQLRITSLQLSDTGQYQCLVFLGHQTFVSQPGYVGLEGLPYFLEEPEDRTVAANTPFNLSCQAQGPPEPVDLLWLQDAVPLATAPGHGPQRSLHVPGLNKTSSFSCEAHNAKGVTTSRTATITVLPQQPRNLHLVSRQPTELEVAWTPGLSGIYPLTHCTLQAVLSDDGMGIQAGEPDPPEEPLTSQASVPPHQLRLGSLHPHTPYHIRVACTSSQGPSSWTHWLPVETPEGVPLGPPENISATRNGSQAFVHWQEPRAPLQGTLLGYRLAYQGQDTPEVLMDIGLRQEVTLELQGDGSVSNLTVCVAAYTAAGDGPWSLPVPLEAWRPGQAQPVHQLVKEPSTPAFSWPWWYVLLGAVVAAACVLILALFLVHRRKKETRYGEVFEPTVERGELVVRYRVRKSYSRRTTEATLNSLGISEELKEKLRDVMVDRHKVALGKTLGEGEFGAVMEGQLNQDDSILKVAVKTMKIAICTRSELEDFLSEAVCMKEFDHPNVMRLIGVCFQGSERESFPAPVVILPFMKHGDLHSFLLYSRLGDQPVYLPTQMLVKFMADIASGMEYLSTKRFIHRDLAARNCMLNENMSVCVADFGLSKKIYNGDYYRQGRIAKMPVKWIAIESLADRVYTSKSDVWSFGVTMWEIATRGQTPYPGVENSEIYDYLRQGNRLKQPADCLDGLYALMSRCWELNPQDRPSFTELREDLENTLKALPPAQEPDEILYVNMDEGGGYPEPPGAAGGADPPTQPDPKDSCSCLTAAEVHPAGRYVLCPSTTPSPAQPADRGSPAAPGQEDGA
# Tyro3 = target: T3, Tyro3 (Homo sapiens, UniProt Q06418); experiment: Tyro3 kinase inhibition IC50
# T3 sequence (Q06418 41-890): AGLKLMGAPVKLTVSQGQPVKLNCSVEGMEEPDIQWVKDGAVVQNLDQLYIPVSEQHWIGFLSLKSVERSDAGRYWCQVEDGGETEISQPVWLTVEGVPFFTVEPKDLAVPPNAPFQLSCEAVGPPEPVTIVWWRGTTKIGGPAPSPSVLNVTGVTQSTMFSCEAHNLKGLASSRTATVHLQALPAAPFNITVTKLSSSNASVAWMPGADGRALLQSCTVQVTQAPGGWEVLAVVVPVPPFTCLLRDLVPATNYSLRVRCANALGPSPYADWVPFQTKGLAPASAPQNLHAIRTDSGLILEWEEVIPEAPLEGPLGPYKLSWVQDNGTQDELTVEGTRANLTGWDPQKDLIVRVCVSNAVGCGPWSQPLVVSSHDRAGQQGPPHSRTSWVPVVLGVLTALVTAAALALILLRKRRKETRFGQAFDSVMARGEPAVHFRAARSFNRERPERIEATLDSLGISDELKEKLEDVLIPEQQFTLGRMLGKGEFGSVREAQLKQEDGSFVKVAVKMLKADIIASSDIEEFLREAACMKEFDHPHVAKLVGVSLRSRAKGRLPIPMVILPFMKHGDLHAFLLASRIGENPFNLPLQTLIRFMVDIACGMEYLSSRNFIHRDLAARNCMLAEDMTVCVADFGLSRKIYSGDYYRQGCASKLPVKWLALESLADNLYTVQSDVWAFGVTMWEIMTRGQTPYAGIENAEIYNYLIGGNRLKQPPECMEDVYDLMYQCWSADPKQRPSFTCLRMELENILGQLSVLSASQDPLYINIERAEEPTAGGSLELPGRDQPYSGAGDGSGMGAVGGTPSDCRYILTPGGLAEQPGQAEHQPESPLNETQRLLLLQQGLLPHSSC
Compound,IC50 (Mer; Table 2) [nM],IC50 (Axl; Table 2) [nM],"IC50 (Tyro3; Table 2, read-out: Tyro3 IC50) [nM]",IC50 (Mer; Table 3) [nM],IC50 (Axl; Table 3) [nM],"IC50 (Tyro3; Table 3, read-out: Tyro3 IC50) [nM]",further results
O[C@H]1CC[C@H](Nc2nc(Nc3ccc(C#Cc4cc(-c5ncc[nH]5)ccn4)cc3)ncc2-c2ccccn2)CC1 [UNC4357A],,,,,,,"IC50 (Mer; Table 4): 100 to 1000 nM; IC50 (Axl; Table 4): 1000 to 30000 nM; IC50 (Tyro3; Table 4, read-out: Tryo3 IC50): 100 to 1000 nM"
CC(C)N1CCC(=Cc2ccc(-c3cnc(Nc4ccc(F)cc4)nc3N[C@H]3CC[C@H](O)CC3)nc2)CC1 [UNC4397A],,,,,,,"IC50 (Mer; Table 1): < 10 nM; IC50 (Axl; Table 1): < 10 nM; IC50 (Tyro3; Table 1, read-out: Tyro3 IC50): < 10 nM"
Cc1cc(Nc2ncc(-c3ccc(CN4CCN(C)CC4)cc3)c(N[C@H]3CC[C@H](O)CC3)n2)ccc1C#Cc1cc(NC(=O)C(C)C)ccn1 [UNC4044A],,,,< 10,< 10,< 10,
CC(C)C(=O)Nc1ccnc(C#Cc2ccc(Nc3ncc(-c4ccc(CN5CCN(C)CC5)cc4)c(N[C@H]4CC[C@H](O)CC4)n3)cc2F)c1 [UNC4045A],,,,< 10,< 10,< 10,
CC(C)C(=O)Nc1ccnc(C#Cc2ccc(Nc3ncc(-c4ccccn4)c(N[C@H]4CC[C@H](O)CC4)n3)cc2)c1 [UNC4042A],,,,< 10,< 10,< 10,
CC(C)C(=O)Nc1ccnc(C#Cc2ccc(Nc3ncc(-c4ccccc4)c(N[C@H]4CC[C@H](O)CC4)n3)cc2)c1 [UNC4041A],,,,10 to 100,100 to 1000,10 to 100,
CN1CCN(Cc2ccc(-c3cnc(Nc4ccc(C#Cc5cc(NC(=O)C6CCCC6)ccn5)cc4)nc3N[C@H]3CC[C@H](O)CC3)cc2)CC1 [UNC3872A],,,,< 10,< 10,< 10,
CC(C)Nc1ccnc(C#Cc2ccc(Nc3ncc(-c4ccccn4)c(N[C@H]4CC[C@H](O)CC4)n3)cc2)c1 [UNC4364A],,,,,,,"IC50 (Mer; Table 4): 10 to 100 nM; IC50 (Axl; Table 4): 100 to 1000 nM; IC50 (Tyro3; Table 4, read-out: Tryo3 IC50): 10 to 100 nM"
CC(C)C(=O)Nc1ccnc(C#Cc2ccc(Nc3ncc(-c4ccc(CN5CCN(C)CC5)cc4)c(N[C@H]4CC[C@H](O)CC4)n3)c(F)c2)c1 [UNC4040A],,,,< 10,100 to 1000,< 10,
O[C@H]1CC[C@H](Nc2nc(Nc3ccc(C#Cc4cc(-c5ccncc5)ccn4)cc3)ncc2-c2ccccn2)CC1 [UNC4363A],,,,,,,"IC50 (Mer; Table 4): 10 to 100 nM; IC50 (Axl; Table 4): 1000 to 30000 nM; IC50 (Tyro3; Table 4, read-out: Tryo3 IC50): 100 to 1000 nM"
CC(C)C(=O)Nc1ccnc(C#Cc2ccc(Nc3ncc(-c4ccc(CN5CCN(C)CC5)cc4)c(N[C@H]4CC[C@H](O)CC4)n3)c(Cl)c2)c1 [UNC4046A],,,,10 to 100,< 10,10 to 100,
COc1cccc(Oc2ccnc(C#Cc3ccc(Nc4ncc(-c5ccccn5)c(N[C@H]5CC[C@H](O)CC5)n4)cc3)c2)c1 [UNC4393A],,,,,,,"IC50 (Mer; Table 5): 1000 to 30000 nM; IC50 (Axl; Table 5): 1000 to 30000 nM; IC50 (Tyro3; Table 5, read-out: Tryo3 IC50): 1000 to 30000 nM"
O[C@H]1CC[C@H](Nc2nc(Nc3ccc(C#Cc4cc(-c5ccn[nH]5)ccn4)cc3)ncc2-c2ccccn2)CC1 [UNC4360A],,,,,,,"IC50 (Mer; Table 4): 100 to 1000 nM; IC50 (Axl; Table 4): 1000 to 30000 nM; IC50 (Tyro3; Table 4, read-out: Tryo3 IC50): 100 to 1000 nM"
CN1CCN(Cc2ccc(-c3cnc(Nc4ccc(C#Cc5cc(NC(=O)C6CCC6)ccn5)cc4)nc3N[C@H]3CC[C@H](O)CC3)cc2)CC1 [UNC3871A],,,,< 10,10 to 100,< 10,
CC(C)C(=O)Nc1ccnc(C#Cc2ccc(Nc3ncc(-c4ccc(CN5CCN(C)CC5)cc4)c(N[C@H]4CC[C@H](O)CC4)n3)cc2Cl)c1 [UNC4047A],,,,< 10,< 10,< 10,

# More lines, main results first:
IC50 (Mer; Table 2) [nM],IC50 (Axl; Table 2) [nM],"IC50 (Tyro3; Table 2, read-out: Tyro3 IC50) [nM]",IC50 (Mer; Table 3) [nM],IC50 (Axl; Table 3) [nM],"IC50 (Tyro3; Table 3, read-out: Tyro3 IC50) [nM]",Compound,further results
10 to 100,100 to 1000,100 to 1000,,,,O[C@H]1CC[C@H](Nc2nc(Nc3ccc(C4=CCOCC4)cc3)ncc2-c2ccccn2)CC1 [UNC4434A],
100 to 1000,1000 to 30000,100 to 1000,,,,CN1CCC(c2ccc(Nc3ncc(-c4ccccn4)c(NC4CCOCC4)n3)cc2)CC1 [UNC5134A],
10 to 100,100 to 1000,100 to 1000,,,,CN1CCC(N2CC=C(c3ccc(Nc4ncc(-c5ccccn5)c(N[C@H]5CC[C@H](O)CC5)n4)cc3)CC2)CC1 [UNC5052A],
100 to 1000,1000 to 30000,100 to 1000,,,,O[C@H]1CC[C@H](Nc2nc(Nc3ccc(-c4cccnc4)cc3)ncc2-c2ccccn2)CC1 [UNC4435A],
10 to 100,100 to 1000,100 to 1000,,,,CN1CCCC(c2ccc(Nc3ncc(-c4ccccn4)c(N[C@H]4CC[C@H](O)CC4)n3)cc2)C1 (stereo partly drawn) [UNC5131A],
10 to 100,100 to 1000,100 to 1000,,,,O[C@H]1CC[C@H](Nc2nc(Nc3ccc(C4=CCCNC4)cc3)ncc2-c2ccccn2)CC1 [UNC5113A],
100 to 1000,1000 to 30000,100 to 1000,,,,O[C@H]1CC[C@H](Nc2nc(Nc3ccc(C4=CCNCC4)cc3)ncc2-c2ccccn2)CC1 [UNC4402A],
